According to publication PMC6399351, “Cationic Intrinsically Disordered Antimicrobial Peptides (CIDAMPs) Represent a New Paradigm of Innate Defense with a Potential for Novel Anti-Infectives” (Scientific Reports, 2019):
≈ marks a conversion by molar mass, not a printed value. Read-outs that look alike come from different tables or passages of the source. Peptide text beside a SMILES is read from it. * marks the point of attachment. Palmitoyl = CCCCCCCCCCCCCCCC(=O)*

Key:
[1] = test system: Corynebacterium simulans DSM 44415; experiment: CFU assay of antimicrobial activity; assay type: cell-based; conditions: 10 mM NaP, pH 7.3, 1% TSB
Method: All purified peptides and recombinant proteins were applied using a colony forming unit (CFU) assay in different media. Bacteria were grown to early log-phase in BHI, washed either with 10 mM Na-P, pH 7.4/1% TSB or pH 5.5/1% TSB, or pH 5.5 without TSB or BHI, and adjusted to a concentration of 10^4–10^5 colony forming units (CFU)/ml. For cell number control, 100 µl aliquots were diluted 1:10, 1:100 and 1:1000 and plated in duplicates on BHI agar plates. […]
(§1) Then bacteria were incubated for 2 h at ambient temperature, if not otherwise stated. 10 µl of 0.01% (v/v) acetic acid, added to 100 µl aliquots of the bacteria in the respective medium, served as negative control. From each test, 1:10 and 1:100 dilutions were generated and plated as duplicates of 100 µl aliquots on BHI agar plates. After 16 h incubation at 37 °C, CFU were counted using a colony counter (Bio Kobe, Japan) and expressed as mean of the duplicate estimation to achieve a complete dose-response curve. All experiments were performed at serial dilutions in a concentration range of 100 µg/mL −25 ng/mL for recombinant HRNR fragments and 300 or 150 µg/mL–19 ng/mL for synthetic peptides.

[2] = test system: Lactobacillus crispatus DSM 20584; experiment: CFU assay of antimicrobial activity; assay type: cell-based; conditions: 10 mM NaP, pH 7.3, 1% TSB
Method: (§2) All purified peptides and recombinant proteins were applied using a colony forming unit (CFU) assay in different media. Bacteria were grown to early log-phase in BHI, washed either with 10 mM Na-P, pH 7.4/1% TSB or pH 5.5/1% TSB, or pH 5.5 without TSB or BHI, and adjusted to a concentration of 10^4–10^5 colony forming units (CFU)/ml. For cell number control, 100 µl aliquots were diluted 1:10, 1:100 and 1:1000 and plated in duplicates on BHI agar plates. To 100 µl aliquots of the bacteria, suspended in the respective medium (10 mM Na-P buffer pH 7,0–7,4/ 1% (w/v) TSB; 10 mM Na-P buffer pH 5,5/ 1% (w/v) TSB; 10 mM Na-P buffer pH 7,0–7,4/ 1% (w/v) TSB pH 7,0–7,4/ 0,25% (w/v) glucose; 10 mM Na-P buffer pH 5,5/ 0,25% (w/v) glucose, respectively), 10 µl of a solution of the peptide or protein (two-fold dilutions, from 300 µg/ml or 150 µg/ml down to 19 ng/ml), dissolved in 0.01% (v/v) acetic acid, were added.
as §1

[3] = test system: Propionibacterium acnes ATCC 6919; experiment: CFU assay of antimicrobial activity; assay type: cell-based; conditions: 10 mM NaP
Method: as §2, §1

[4] = test system: Salmonella typhimurium ATCC 13311; experiment: CFU assay of antimicrobial activity; assay type: cell-based; conditions: 10 mM NaP, pH 7.3, 1% TSB
Method: as §2, §1

[5] = test system: Staphylococcus epidermidis ATCC 14990; experiment: CFU assay of antimicrobial activity; assay type: cell-based; conditions: 10 mM NaP
Method: as §2, §1

[6] = test system: Acinetobacter baumannii ATCC 19606; experiment: CO-ADD MIC, broth microdilution (CLSI); assay type: cell-based; conditions: Mueller–Hinton broth, 5 × 10^5 CFU/mL, 18 h 37 °C, by CO-ADD
Text: (§3) They were defined as the lowest peptide
(§4) Further details of the screening

[7] = test system: Pseudomonas aeruginosa ATCC 27853; experiment: CO-ADD MIC, broth microdilution (CLSI); assay type: cell-based; conditions: Mueller–Hinton broth, 5 × 10^5 CFU/mL, 18 h 37 °C, by CO-ADD
Text: as §3, §4

[8] = test system: Candida albicans ATCC 90028; experiment: CO-ADD MIC, antifungal assay (CLSI); assay type: cell-based; conditions: Yeast Nitrogen Base broth, 24 h 35 °C, by CO-ADD
Method: (§5) Fungi strains were cultured for 3 days on Yeast Extract-Peptone Dextrose (YPD) agar at 30 °C. A yeast suspension of 1 × 10^6 to 5 × 10^6 cells/mL (as determined by OD530) was prepared from five colonies. These stock suspensions were diluted with Yeast Nitrogen Base (YNB) broth to a final concentration of 2.5 × 10^3 CFU/mL. […] Plates were covered and incubated at 35 °C for 24 h without shaking.

[9] = test system: Cryptococcus neoformans ATCC 208821; experiment: CO-ADD MIC, antifungal assay (CLSI); assay type: cell-based; conditions: Yeast Nitrogen Base broth, 24 h 35 °C, by CO-ADD
Method: as §5

[10] = test system: Burkholderia cepacia ATCC 25416; conditions: CFU assay, 10 mM NaP
[11] = test system: Staphylococcus hominis ATCC 27844; conditions: CFU assay, 10 mM NaP, pH 7.3, 1% TSB
[12] = test system: Klebsiella pneumonia ATCC 700603; conditions: MDR strain; CLSI, Mueller–Hinton broth, 5 × 10^5 CFU/mL, 18 h 37 °C, by CO-ADD

CCCCCCCCCCCCCCCC(=O)NCC(=O)N[C@@H](CCCNC(=N)N)C(=O)N[C@@H](CCCNC(=N)N)C(=O)NCC(=O)NCC(=O)N[C@@H](CCCNC(=N)N)C(=O)NCC(=O)NCC(=O)N[C@@H](CCCNC(=N)N)C(=O)NCC(=O)N[C@@H](CCCNC(=N)N)C(=O)NCC(=O)N[C@@H](CCCNC(=N)N)C(=O)O [Pal-GR13] (Palmitoyl-GRRGGRGGRGRGR-OH)
LD90 [1]: 0.59 µg/mL | LD90 [2]: 9.38 µg/mL | LD90 ([3]; pH 5.5, 0.25% glucose): 0.3 µg/mL | LD90 ([3]; pH 7.3, 0.25% glucose): 0.59 µg/mL | LD90 ([3]; pH 7.3, 1% TSB): 1.18 µg/mL | LD90 [4]: 2.35 µg/mL | LD90 ([5]; pH 5.5, 0.25% glucose): 9.38 µg/mL | LD90 ([5]; pH 7.3, 1% TSB): 0.59 µg/mL | Minimal inhibitory concentration (MIC) [6]: 2 µg/mL (≈ 1.26 µM) | Minimal inhibitory concentration (MIC) [7]: 8 µg/mL (≈ 5.02 µM) | Minimal inhibitory concentration (MIC) [8]: 4 µg/mL (≈ 2.51 µM) | Minimal inhibitory concentration (MIC) [9]: 0.25 µg/mL (≈ 0.157 µM) | LD90 ([10]; pH 5.5, 0.25% glucose): >300 µg/mL | LD90 ([10]; pH 7.3, 0.25% glucose): 4.7 µg/mL | LD90 ([10]; pH 7.3, 1% TSB): 18.75 µg/mL | LD90 [11]: 1.18 µg/mL | Minimal inhibitory concentration (MIC) [12]: ≥16 µg/mL
